Drawing on patent publication US20250197399A1, “COMPOUNDS, COMPOSITIONS, AND METHODS” (Tenvie Therapeutics, Inc., priority 2022, published 2025), this text covers IC50 for 18 compounds.

Read-outs that look alike come from different tables or passages of the source.

The subject of the test is NLRP3. Briefly: IL-1β secretion assay in PMA-differentiated, LPS/nigericin-stimulated THP-1 cells (ELISA). To be noted: 25 ng/mL LPS then nigericin, IL-1β in supernatant. Format: cell-based. As to the method:
Compounds as provided herein were tested in the following assay. Cell culture medium employed contained RPMI 1640 medium (89%), FBS (10%), Pen/Strep (1%), and 2-mercaptoethanol (0.05 mM). Freezing medium was made up of 90% FBS and 10% DMSO. THP-1 cells were removed from the liquid nitrogen and placed into a 37° C. water bath to thaw, until signs of ice dissipated. The cells were then added to 9 mL of warm cell culture medium and centrifuged for 5 minutes at 1000 rpm. The supernatant was discarded, and the cells were resuspended in new cell culture medium. THP-1 cells were then split and cultured in the cell culture medium, being passaged every 2-3 days with the cell density will be maintained between 5×10^5 and 1.5×10^6 viable cells/mL.
PMA was dissolved in DMSO to make a stock solution at 5 mg/ml and stored in 10 μl aliquots at −20° C. for single use. PMA is added to normal growth medium. LPS was diluted with 1 mL of water solution to provide a 1 mg/mL stock solution and stored in 15 μL aliquots at −20° C. for single use. Nigericin is diluted in ice cold 100% ethanol to 5 mg/ml (6.7 mM) and stored in 75 μL aliquots at −20° C. for single use. Serum-free media contains RPMI 1640 medium (99%), Pen/Strep (1%), and 2-mercaptoethanol (0.05 mM). The two control conditions used to qualify and normalize test compound dose-response curves were as follows: High Control=25 ng/mL LPS, […], 0.5% DMSO, Low Control=25 ng/mL, LPS, 0.5% DMSO.
THP-1 cells were diluted to provide a suspension at a concentration of 1.0×10^6 cells/mL with the total volume of suspension required to enable the desired number of assay plates. The growth media was supplemented with PMA (5 ng/mL final concentration) and the cells were incubated at 37° C. under a humidified atmosphere of 5% CO2 for 40 h.
All media was carefully aspirated from each culture flask. The cells were washed carefully with 1×DPBS. The cells were then briefly digested with trypsin LE for 5 minutes at 23° C. and immediately resuspended in cell growth media. After resuspension, the cells were centrifuged at 1000 rpm for 3 minutes and the supernatant was discarded. The cells were resuspended in DPBS and once again centrifuged at 1000 rpm for 5 minutes. The supernatant was discarded and the cell pellet was resuspended in serum-free media supplemented with LPS (25 ng/mL final concentration) to enable the distribution of 30K THP-1 cells within 45 μL of media into each well of 384-well PDL-coated plates. The 384-well plates were then incubated at 37° C. under a humidified atmosphere of 5% CO2 for 2 h. Following this period, test compounds were dispensed by Tecan across the desired concentration range with all wells normalized to a final 0.5% DMSO concentration. The plates were then then incubated at 37° C. under a humidified atmosphere of 5% CO2 for 1 h. Following this period, 5 μL of the 5 mg/mL nigericin stock solution was added to each of the appropriate wells and plates were centrifuged at 1000 rpm for 30 seconds. The plates were the immediately reintroduced to the incubator at 37° C. under a humidified atmosphere of 5% CO2 for 2 h. After this time, 35 μL/well of supernatant was collected and transferred into v-bottom plate and centrifuged at 1000 rpm for 1 minute. These supernatant aliquots were analyzed using an IL-Iβ detection kit as described below. If needed, the test samples could be snap frozen and stored at −80° C. until analyzed.
To prepare each ELISA plate, capture antibody (mAb Mt175) was diluted with PBS to a final concentration of […] and then 20 μL of this solution was added to each well of the ELISA plate. Each plate was allowed to incubate overnight at 4° C. The next day, the capture antibody solution was removed and discarded. Each ELISA plate was washed 4 times with PBST followed by the addition of 25 µL/well of blocking buffer (Licor-927-40010) supplemented with 0.1% Tween 20. Each ELISA plate was then allowed to incubate for 1 hour at 23° C. […]
Background: An ELISA detects its analyte on a solid surface through an enzyme-linked reagent.

The mark [1] stands for this setting: THP-1 cells, read-out: Activity.
Where [2] appears, read: THP-1 cells, read-out: Activity (IC50 class).
The mark [3] stands for this setting: Homo sapiens, THP-1, THP-1 cells, read-out: Activity.
Setting [4] is: Homo sapiens, THP-1, THP-1 cells, read-out: Activity (IC50 class).

For `Cc1cnc(NC(=O)CN2CC3(CC3(F)F)c3c(ccc(Br)c3F)C2=O)nc1` (single isomer, unassigned) [Example 33, N-(5-methylpyrimidin-2-yl)-2-[6-bromo-1′,1′,5-trifluoro-1-oxospiro[3H-isoquinoline-4,2′-cyclopropane]-2-yl]acetamide], the IC50 under setting [1] is 55 nM and the IC50 under setting [2] is less than 1000 nM.

As for `C[C@]1(O)C[C@@H](NC(=O)CN2CC3(CC3(F)F)c3cc(C(F)(F)F)ccc3C2=O)C1` (single isomer, unassigned) [Example 53, 2-[1′,1′-difluoro-1-oxo-6-(trifluoromethyl)spiro[3H-isoquinoline-4,2′-cyclopropane]-2-yl]-N-(3-cis-hydroxy-3-methylcyclobutyl)acetamide], the IC50 is, setting by setting: under setting [1], 472 nM; under setting [2], less than 1000 nM.

Consider `O=C(CN1CC2(CC2(F)F)c2c(ccc(C3CC3)c2F)C1=O)Nc1ncc(Cl)cn1` (single isomer, unassigned) [Example 35, N-(5-chloropyrimidin-2-yl)-2-[6-cyclopropyl-1′,1′,5-trifluoro-1-oxospiro[3H-isoquinoline-4,2′-cyclopropane]-2-yl]acetamide], for which the IC50 by setting is: under setting [1], 16 nM; under setting [2], less than 1000 nM.

Turning to `O=C(CN1C[C@]2(C[C@H]2F)c2cc(C3(F)CC3)ccc2C1=O)Nc1ncc(C(F)(F)F)cn1` [Example 1, 2-[(2′R,4S)-2′-fluoro-6-(1-fluorocyclopropyl)-1-oxospiro[3H-isoquinoline-4,1′-cyclopropane]-2-yl]-N-(5-(trifluoromethyl)pyrimidin-2-yl)acetamide], the IC50 was 24 nM under setting [3] and less than 1000 nM under setting [4].

For the compound `O=C(CN1C[C@@]2(C[C@@H]2F)c2c(ccc(C(F)(F)F)c2F)C1=O)Nc1ncc(Cl)cn1` (single isomer, unassigned) [Example 13, 2-[(2′s,4r)-2′,5-difluoro-1-oxo-6-(trifluoromethyl)spiro[3H-isoquinoline-4,1′-cyclopropane]-2-yl]-N-(5-chloropyrimidin-2-yl)acetamide], the IC50 was 232 nM under setting [1] and less than 1000 nM under setting [2].

Consider `O=C(CN1CC2(CC2)c2c(ccc(Br)c2F)C1=O)Nc1ncc2nc[nH]c2n1` [Example 62, 2-(6-bromo-5-fluoro-1-oxospiro[3H-isoquinoline-4,1′-cyclopropane]-2-yl)-N-(9H-purin-2-yl)acetamide], for which the IC50 under setting [3] was found to be 80 nM and the IC50 under setting [4] was less than 1000 nM.

With `Cc1cnc(NC(=O)CN2C[C@]3(C[C@H]3F)c3cc(C4(F)CC4)ccc3C2=O)nc1` [Example 2, 2-[(2′R,4S)-2′-fluoro-6-(1-fluorocyclopropyl)-1-oxospiro[3H-isoquinoline-4,1′-cyclopropane]-2-yl]-N-(5-methylpyrimidin-2-yl)acetamide], the IC50 under setting [3] came out at 18 nM and the IC50 under setting [4] is less than 1000 nM.

In the case of `C[C@]1(O)C[C@@H](NC(=O)CN2C[C@]3(C[C@H]3F)c3cc(C4(F)CC4)ccc3C2=O)C1` [Example 4, N-(3-cis-hydroxy-3-methylcyclobutyl)-2-[(2′R,4S)-2′-fluoro-6-(1-fluorocyclopropyl)-1-oxospiro[3H-isoquinoline-4,1′-cyclopropane]-2-yl]acetamide], the IC50 is, setting by setting: under setting [3], 16 nM; under setting [4], less than 1000 nM.

With `O=C(CN1C[C@@]2(C[C@@H]2F)c2c(ccc(C(F)(F)F)c2F)C1=O)Nc1ncc(Cl)cn1` (single isomer, unassigned) [Example 12, 2-[(2′s,4r)-2′,5-difluoro-1-oxo-6-(trifluoromethyl)spiro[3H-isoquinoline-4,1′-cyclopropane]-2-yl]-N-(5-chloropyrimidin-2-yl)acetamide], the IC50 is, setting by setting: under setting [4], less than 1000 nM; under setting [1], 54 nM.

Turning to `O=C(CN1CC2(CC2)c2cc(C(F)(F)F)ccc2C1=O)Nc1ncc2cn[nH]c2n1` [Example 51, 2-[1-oxo-6-(trifluoromethyl)spiro[3H-isoquinoline-4,1′-cyclopropane]-2-yl]-N-(1H-pyrazolo[3,4-d]pyrimidin-6-yl)acetamide], the IC50 is 181 nM under setting [3] and less than 1000 nM under setting [4].

On to `O=C(CN1CC2(CC2)c2cc(Br)ccc2C1=O)Nc1nc2[nH]ncc2cc1F` [Example 59, 2-(6-bromo-1-oxospiro[3H-isoquinoline-4,1′-cyclopropane]-2-yl)-N-[5-fluoro-1H-pyrazolo[3,4-b]pyridin-6-yl]acetamide], for which the IC50 was 322 nM under setting [3] and less than 1000 nM under setting [4].

On to `O=C(CN1CC2(CC2(F)F)c2cc(Br)ccc2C1=O)Nc1ncc(Cl)cn1` (single isomer, unassigned) [Example 16, N-(5-chloropyrimidin-2-yl)-2-[6-bromo-1′,1′-difluoro-1-oxospiro[3H-isoquinoline-4,2′-cyclopropane]-2-yl]acetamide], for which the IC50 by setting is: under setting [4], 1000 to 10000 nM; under setting [1], 1590 nM.

Regarding `O=C(CN1CC2(CC2(F)F)c2cc(C(F)(F)F)ccc2C1=O)Nc1ncc(F)cn1` (single isomer, unassigned) [Example 40, N-(5-fluoropyrimidin-2-yl)-2-[1′,1′-difluoro-6-(trifluoromethyl)-1-oxospiro[3H-isoquinoline-4,2′-cyclopropane]-2-yl]acetamide], the IC50 under setting [4] lay within 1000 to 10000 nM and the IC50 under setting [1] is 9370 nM.

In the case of `Cc1cnc(NC(=O)CN2C[C@]3(C[C@H]3F)c3c(ccc(Cl)c3F)C2=O)nc1` (single isomer, unassigned) [Example 44, 2-[(2′s,4r)-6-chloro-2′,5-difluoro-1-oxospiro[3H-isoquinoline-4,1′-cyclopropane]-2-yl]-N-(5-methylpyrimidin-2-yl)acetamide], the IC50 is 113 nM under setting [3] and less than 1000 nM under setting [4].

As to `Cc1cnc(NC(=O)CN2CC3(CC3(F)F)c3cc(C4(F)CC4)ccc3C2=O)nc1` (single isomer, unassigned) [Example 25, N-(5-methylpyrimidin-2-yl)-2-[1′,1′-difluoro-6-(1-fluorocyclopropyl)-1-oxospiro[3H-isoquinoline-4,2′-cyclopropane]-2-yl]acetamide], the IC50 was 61 nM under setting [1] and less than 1000 nM under setting [2].

On to `O=C(CN1CC2(CC2(F)F)c2cc(C3CC3)ccc2C1=O)Nc1ncc(F)cn1` (single isomer, unassigned) [Example 28, N-(5-fluoropyrimidin-2-yl)-2-[6-cyclopropyl-1′,1′-difluoro-1-oxospiro[3H-isoquinoline-4,2′-cyclopropane]-2-yl]acetamide], for which the IC50 by setting is: under setting [4], 1000 to 10000 nM; under setting [1], 5730 nM.

For the compound `COC(=O)C12CC(NC(=O)CN3CC4(CC4)c4cc(Br)ccc4C3=O)(C1)C2` [Example 60, methyl 3-[[2-(6-bromo-1-oxospiro[3H-isoquinoline-4,1′-cyclopropane]-2-yl)acetyl]amino]bicyclo[1.1.1]pentane-1-carboxylate], the IC50 under setting [3] is 216 nM and the IC50 under setting [4] is less than 1000 nM.

On to `O=C(CN1CC2(CC2)c2cc(Br)ccc2C1=O)Nc1ncc2cn[nH]c2n1` [Example 42, 2-(6-bromo-1-oxo-spiro[3H-isoquinoline-4,1′-cyclopropane]-2-yl)-N-(1H-pyrazolo[3,4-d]pyrimidin-6-yl)acetamide], for which the IC50 is 61 nM under setting [3] and less than 1000 nM under setting [4].
